Results reported in patent US20200247897A1, “THERAPEUTIC ANTIBODIES BASED ON MUTATED IGG HEXAMERS” (GENMAB B.V., priority 2017, published 2020).

Experiments:
SW480 = assay: Drug combination screen (ATPlite, Synergy Score), SW480; assay type: cell-based, human; conditions: compound in combination with IgG1-hDR5-01-G56T-E430G + IgG1-hDR5-05-E430G; SW480; 72 hour ATPlite, 6x6 matrix
SNU-C2B = assay: Drug combination screen (ATPlite, Synergy Score), SNU-C2B; conditions: compound in combination with IgG1-hDR5-01-G56T-E430G + IgG1-hDR5-05-E430G; SNU-C2B; 72 hour ATPlite, 6x6 matrix
LS-411N = assay: Drug combination screen (ATPlite, Synergy Score), LS-411N; assay type: cell-based, human; conditions: compound in combination with IgG1-hDR5-01-G56T-E430G + IgG1-hDR5-05-E430G; LS-411N; 72 hour ATPlite, 6x6 matrix
DLD-1 = assay: Drug combination screen (ATPlite, Synergy Score), DLD-1; conditions: compound in combination with IgG1-hDR5-01-G56T-E430G + IgG1-hDR5-05-E430G; DLD-1; 120 hour ATPlite, 6x6 matrix
HCT 116 = assay: Drug combination screen (ATPlite, Synergy Score), HCT 116; conditions: compound in combination with IgG1-hDR5-01-G56T-E430G + IgG1-hDR5-05-E430G; HCT 116; 120 hour ATPlite, 6x6 matrix

For C[C@@]1(C(=O)Nc2ccc(F)nc2)CCCN1c1nc(Nc2cc(C3CC3)n[nH]2)c2cccn2n1 [BMS-754807], the “Synergy Score SW480” value (SW480) was 5.9, the “Synergy Score SNU-C2B” value (SNU-C2B) was 1.3 and the “Synergy Score LS-411N” value (LS-411N) was 10.8. For the same compound, the “Synergy Score DLD-1” value (DLD-1) was 11.3 and the “Synergy Score HCT-116” value (HCT 116) was 2.1.

In the case of CCN1CCN(c2ccc(Nc3cc(N(C)C(=O)Nc4c(Cl)c(OC)cc(OC)c4Cl)ncn3)cc2)CC1 [BGJ398], the “Synergy Score SW480” value (SW480) is reported as 1.6, the “Synergy Score SNU-C2B” value (SNU-C2B) is reported as 0.8 and the “Synergy Score LS-411N” value (LS-411N) is reported as 1.4. For the same compound, the “Synergy Score DLD-1” value (DLD-1) was 1 and the “Synergy Score HCT-116” value (HCT 116) was 0.1.

CC[C@H](NC(=O)[C@H](C)NC)C(=O)N1C[C@@H](O)C[C@H]1Cc1c(-c2[nH]c3cc(F)ccc3c2C[C@@H]2C[C@H](O)CN2C(=O)[C@H](CC)NC(=O)[C@H](C)NC)[nH]c2cc(F)ccc12 [Birinapant, reference compound] was tested, and the “Synergy Score SW480” value (SW480) was 54.5, the “Synergy Score SNU-C2B” value (SNU-C2B) was 37 and the “Synergy Score LS-411N” value (LS-411N) was 61.2. For the same compound, the “Synergy Score DLD-1” value (DLD-1) was 5.8 and the “Synergy Score HCT-116” value (HCT 116) was 16.4.

In the case of Cn1cc(-c2ccc3nnc(C(F)(F)c4ccc5ncccc5c4)n3n2)cn1 [JNJ-38877605], the “Synergy Score SW480” value (SW480) is reported as 0, the “Synergy Score SNU-C2B” value (SNU-C2B) is reported as 0.1 and the “Synergy Score LS-411N” value (LS-411N) is reported as 0.1. The “Synergy Score DLD-1” value (DLD-1) was 0.1 and the “Synergy Score HCT-116” value (HCT 116) was 0.

With Cn1cc(C2=C(c3ccc(Cl)cc3Cl)C(=O)NC2=O)c2ccccc21 [SB-216763] the “Synergy Score SW480” value (SW480) was 1.4, the “Synergy Score SNU-C2B” value (SNU-C2B) was 0.3 and the “Synergy Score LS-411N” value (LS-411N) was 1.1. The “Synergy Score DLD-1” value (DLD-1) was 0.5 and the “Synergy Score HCT-116” value (HCT 116) was 0.1.

With CC1(C)CCC(CN2CCN(c3ccc(C(=O)NS(=O)(=O)c4ccc(NCC5CCOCC5)c([N+](=O)[O-])c4)c(Oc4cnc5[nH]ccc5c4)c3)CC2)=C(c2ccc(Cl)cc2)C1 [ABT-199] the “Synergy Score SW480” value (SW480) was 0, the “Synergy Score SNU-C2B” value (SNU-C2B) was 0 and the “Synergy Score LS-411N” value (LS-411N) was 0.1. For the same compound, the “Synergy Score DLD-1” value (DLD-1) was 0 and the “Synergy Score HCT-116” value (HCT 116) was 0.

For C[C@]1(O)C[C@@H](c2nc(-c3ccc4ccc(-c5ccccc5)nc4c3)c3c(N)nccn32)C1 [OSI-906], the “Synergy Score SW480” value (SW480) was 3.5, the “Synergy Score SNU-C2B” value (SNU-C2B) was 1 and the “Synergy Score LS-411N” value (LS-411N) was 1.7. For the same compound, the “Synergy Score DLD-1” value (DLD-1) was 0.5 and the “Synergy Score HCT-116” value (HCT 116) was 0.1.
